Experimental data published in patent US6313090A, “Methods for treating parasitic infection using thiopeptides” (The United States of America as represented by the …, priority 2000, dated 2001).

Experiments:
[1] = test system: C. parvum GCH1 oocysts; experiment: Intact C. parvum oocyst assay on MDBKF5D2 cell monolayers, immunofluorescence; assay type: cell-based
Experimental: In vitro doses of drugs. Thiostrepton (Calbiochem) was dissolved in sterile complete Dulbecco's Modified Eagle Medium (DMEM) supplemented with dimethyl sulfoxide (DMSO) at 0.2% and tested at concentrations of 800, 400, 200, and 100, 10, 1 and 0.1 μg/ml.
(§1) Intact C. parvum oocyst asset 3.0×10^4 C. parvum GCH1 oocysts per well were incubated in the above-mentioned concentrations of drug at 37° C. (8% CO2) on confluent MDBKF5D2 cell monolayers in 96 well microtiter plates. The level of infection in each well was determined and analyzed by immunofluorescence assay at 48 hours, using C. parvum sporozoite rabbit anti-serum (0.1%) and fluorescein-conjugated goat anti-rabbit antibody (1.0%). Percent inhibition was calculated by subtracting the mean parasite/drug from the mean parasitelmedium, divided by the mean parasite/medium, all of which was multiplied by 100. The analysis was performed using MCID and an inverted microscope.
In vitro doses of drugs. Thiostrepton (Calbiochem) and Phavic (NTZ) were dissolved in sterile complete Dulbecco's Modified Eagle Medium (DMEM) supplemented with dimethyl sulfoxide (DMSO) at 0.2% and tested at concentrations of 800, 400, 200, and 100 μg/ml. NTZ was tested at concentrations of 100, 10, 1 and 0.1 μg/ml. Paromomycin (Sigma) was dissolved in DMEM and tested at concentrations of 2000, 1000, 500 and 250 μg/ml.
as §1, with “assay .” for “asset”, “plates. For some monolayers, the oocysts were incubated in DMEM on the cell monolayers for four hours, at which time the monolayers were washed and then drug was added to the wells.” for “plates.”, “parasite/medium,” for “parasitelmedium,”
In vitro doses of drugs. Thiostrepton (Calbiochem), Phavic (NTZ) were dissolved in sterile complete Dulbecco's Modified Eagle Medium (DMEM) supplemented with dimethyl sulfoxide (DMSO) at 0.2%. Thiostrepton was tested at a concentration of 800 μg/ml. NTZ was tested at a concentration of 10 μg/ml. Paromomycin was dissolved in DMEM and tested at 2000 μg/ml. Cell monolayers were infected and washed, followed by the addition of drug at time intervals of 0, 2, 4, 8 and 24 hours.
as §1, with “assay.” for “asset”, “analyze” for “analyzed”, “parasite/medium,” for “parasitelmedium,”

[2] = test system: P. falciparum (strain 3D7); experiment: Assay of growth inhibition, [3H]hypoxanthine incorporation; assay type: cell-based; details: in vitro culture; [3H]hypoxanthine uptake and incorporation
Experimental: Assay of Growth inhibition. Thiostrepton (1525 u/mg; Calbiochem) and anisomycin (Sigma) were dissolved at 100 mM in DMSO (Pierce). P. falciparum (strain 3D7) (44) was maintained in culture with human erythrocytes (5% hematocrit) in RPMI-1640 (Life Technologies) supplemented with HEPES and sodium bicarbonate and human sera (10%) under standard conditions (18,19). The growth inhibition assay was conducted as described (20). Briefly, the parasitemia was adjusted to 0.1% parasitemia, 2.5% hematocrit and 200 μl aliquots placed in wells of a microtitre dish. Serial dilutions of drugs were made in RPMI. Thiostrepton was diluted to 10 mM in DMSO before the serial dilutions in RPMI. Aliquots (20 μl) were added in triplicate to the cultures in the microtitre plate, mixing well. At the highest concentrations (final 0.2mM), thiostrepton precipitates. After incubation for 48 hours under standard conditions, [2,8-^3 H]-hypoxanthine Moravek Biochemicals, 12.5 Ci/mmol) in RPMI (20 μl, 0.05 mCi/ml) was added to each well. After incubation for a further 24 hours, the cultures were lysed and incorporated radioactivity was measured with an automated counter.
Assay of inhibition. The effect of thiostrepton on growth and protein synthesis of P. falciparum was compared to anisomycin, since the effect of both of these drugs is on protein synthesis. To assay the effect of thiostrepton and anisomycin on the growth of P. faciparum, inhibition of the uptake and incorporation of [^3 H]hypoxanthine was quantitated at serial dilutions of the drugs on an in vitro culture of P. falciparum. […] Inhibition of the incorporation of [^3 H]leucine was also tested at the same dilutions of the drugs. For anisomycin, total protein synthesis was inhibited 50% at the IC50 (0.511 μM) for inhibition of growth, with the concentration-response almost superimposable on that of protein synthesis. […] This would occur if organelle protein synthesis was the target of inhibition (29,30).

[3] = test system: rpoB/C mRNA encoded by the 35-kb plastid-like organelle genome; assay type: cell-based, P. falciparum; details: thiostrepton at 8 μM, rifampin at 80 μM
Experimental: As of organelle and cyloplasmic transcript levels. RNA polymerase transcript levels were assessed by comparing the amounts of RNA synthesized at timepoints following drug treatment. Cultures of P. falciparum (3.2% parasitemia, 5% hematocrit) were treated with thiostrepton at 8 μM and rifampin (Sigma) at 80 μM; near the IC99 values (this study and ref. 22). Aliquots (5 ml) of treated and control cultures were removed and immediately processed for RNA with a guanidinium thiocyanate solution, according to the manufacturer's directions (RNAgents, Promega). All RNA samples were dissolved in 50 μl DEPC-treated water, DNase I treated as previously described (23) and an aliquot (1 μl) was removed for RT-PCR First strand synthesis of cDNA was completed with a random hexamer (Superscript Preamplification System, Life Technologies). One-tenth of the CDNA product was utilized for PCR of rpoB/C, MSA1, and rRNA. Primers corresponding to the 3' region of rpoB, 5'-GGGCTTTAGAAGCTTTTGG-3' (SEQ ID NO:1), and the 5' region of rpoC, 5'-[…]-3' (SEQ ID NO:2) were applied as described (2,3) for PCR of nascent rpoB/C transcripts. Reactions were cycled with the following parameters: 94° C./30 seconds, 42° C./30 seconds, 72° C./60 seconds, 35 cycles. Primers for amplification of nucleotide 64 to 614 of MSA1 with 5'-GTGTGATAATATTCATGG-3' (SEQ ID NO:3) and 5'-GGAGAGCATTTGGTG-3' (SEQ ID NO:4)(24) and the small subunit rRNA with oligonucleotides 841 and 844 (23) were used for amplification reactions following the parameters in the respective references except with 35 cycles. Samples were also analyzed after 25 cycles of amplification to ensure detection in the linear range of the amplification reaction, with similar results. Following electrophoresis of aliquots from the amplification reactions on 1% agarose:TBE gels, samples were transferred to nylon membranes (GeneScreen Plus, DuPont) and hybridized as described (25). The amplification products were probed with 5'-^32 P-labeled oligonucleotides. The rpoB/C products were probed with 5'-[…]-3' (SEQ ID NO:5) (nucleotide 2009-2030 of rpoB) and 5'-CGGAGAGGTATTAATACC-3' (SEQ ED NO:6) (nucleotide 108-125 of rpoC), in 5×SSC, 10 mM sodium phosphate, 0.05% sodium pyrophosphate, 1% sodium dodecyl sulfate, 5×Denhardt's solution, 100 μg/ml yeast tRNA, 42° C. and washed in the hybridization solution lacking Denhardt's and tRNA at 37° C., three times. The final wash was 1×SSC, 0.5% sodium dodecyl sulfate, 42° C. followed by autoradiography. The same results were obtained with either probe. The MSA1 amplification products were similarly probed with 5'-[…]-3' (SEQ ID NO:7) and the rRNA products with oligonucleotide 842 (23).
The target of inhibition by thiostrepton. […]

[4] = test system: P. falciparum (strain 3D7); details: concentration used, near the IC99 value; cited from earlier work
[5] = Table 4 Washed at 4 hours, 1 μg/ml
[6] = Table 4 Washed at 4 hours, 10 μg/ml
[7] = Table 4 Washed at 4 hours, .1 μg/ml
[8] = Table 5, 10 μg/ml, drug added at 0 hrs
[9] = Table 5, 10 μg/ml, drug added at 2 hrs
[10] = Table 5, 10 μg/ml, drug added at 4 hrs
[11] = Table 5, 10 μg/ml, drug added at 8 hrs
[12] = Table 5, 10 μg/ml, drug added at 24 hrs

SMILES: CC(=O)Oc1ccccc1C(=O)Nc1ncc([N+](=O)[O-])s1 [NTZ]
- Inhibition Percent ([1]; Table 3 Unwashed, 1 μg/ml): 43.60%
- Inhibition Score ([1]; Table 3 Unwashed, 1 μg/ml): 1 (1: 31-55%)
- Parasite Count ([1]; Table 3 Unwashed, 1 μg/ml): 694.75
- Inhibition Percent ([1]; Table 3 Unwashed, 10 μg/ml): 92.91%
- Inhibition Score ([1]; Table 3 Unwashed, 10 μg/ml): 4 (4: 91-100%)
- Parasite Count ([1]; Table 3 Unwashed, 10 μg/ml): 87.31
- Inhibition Percent ([1]; Table 3 Unwashed, .1 μg/ml): 10.31%
- Inhibition Score ([1]; Table 3 Unwashed, .1 μg/ml): 0 (0: 0-30%)
- Parasite Count ([1]; Table 3 Unwashed, .1 μg/ml): 1104.81
- Inhibition Percent [1, 5]: 83.27%
- Inhibition Score [1, 5]: 3 (3: 71-90%)
- Parasite Count [1, 5]: 233.44
- Inhibition Percent [1, 6]: 93.12%
- Inhibition Score [1, 6]: 4 (4: 91-100%)
- Parasite Count [1, 6]: 96.06
- Inhibition Percent [1, 7]: 4.42%
- Inhibition Score [1, 7]: 0 (0: 0-30%)
- Parasite Count [1, 7]: 1334.06
- Inhibition Percent [1, 8]: 91.12%
- Inhibition Score [1, 8]: 4 (4: 91-100%)
- Parasite Count [1, 8]: 113.06
- Inhibition Percent [1, 9]: 95.76%
- Inhibition Score [1, 9]: 4 (4: 91-100%)
- Parasite Count [1, 9]: 53.94
- Inhibition Percent [1, 10]: 91.18%
- Inhibition Score [1, 10]: 4 (4: 91-100%)
- Parasite Count [1, 10]: 112.31
- Inhibition Percent [1, 11]: 86.01%
- Inhibition Score [1, 11]: 3 (3: 71-90%)
- Parasite Count [1, 11]: 178.13
- Inhibition Percent [1, 12]: 60.60%
- Inhibition Score [1, 12]: 2 (2: 56-70%)
- Parasite Count [1, 12]: 501.63
- activity when drug is added 24 hours after infection ([1]; intracellular stages only): still highly inhibitory

SMILES: COc1ccc(C[C@H]2NC[C@H](O)[C@H]2OC(C)=O)cc1 [anisomycin]
- IC50 [2]: 500 nM

SMILES: CO[C@H]1/C=C/O[C@@]2(C)Oc3c(C)c(O)c4c(O)c(c(/C=N/N5CCN(C)CC5)c(O)c4c3C2=O)NC(=O)/C(C)=C\C=C\[C@H](C)[C@H](O)[C@@H](C)[C@@H](O)[C@@H](C)[C@H](OC(C)=O)[C@@H]1C [rifampin]
- decay of mRNA corresponding to rpoB/C, time of drug treatment [3]: ≤ 6 h
- IC99 (near) [4]: ~80 µM
